Experimental data: patent US20240058443A1, “PREVENTION OR MITIGATION OF NK CELL ENGAGING AGENT-RELATED ADVERSE EFFECTS” (Hoffmann-La Roche Inc., priority 2021, published 2024)

Key:
CD19+ B cell = test: Whole blood assay: obinutuzumab-induced B cell depletion measured by flow cytometry; assay type: cell-based; settings: for target cell killing mediated by NK cell engaging antibody: summary statement of the description, no conditions given; for B cell depletion induced by obinutuzumab: 100 nM inhibitor, fresh whole blood, obinutuzumab 100 to 0.1 μg/mL, 48 hours, FIG. 1
Experimental: FIG. 1. Effect of 100 nM ruxolitinib (ruxo), 100 nM sirolimus (siro), 100 nM dasatinib (dasa) on obinutuzumab-induced CD19^+ B cell depletion in a whole blood assay. Fresh whole blood was incubated with 100, 10, 1 and 0.1 μg/mL obinutuzumab or PGLALA IgG in the presence and absence of 100 nM ruxolitinib, 100 nM sirolimus and 100 nM dasatinib for 48 hours. The PGLALA IgG has a silent Fc region and is a negative control. At 48 hours, blood was collected and lysed and the percentage of CD19^+ B cell among live cells was measured by flow cytometry. Mean of n=2 donors.
(§1) The CD20-targeting, effector-enhanced antibody obinutuzumab (Gazyva®) depletes B cells via FcγR signaling, and can be associated with a risk of infusion reaction characterized by cytokine release induced via FcγR signaling. To assess whether the mTOR inhibitor sirolimus, the JAK1/2 inhibitor ruxolitinib and the Src inhibitor dasatinib can prevent cytokine release induced via FcγR signaling, a whole blood assay using escalating doses of obinutuzumab in the presence and absence of sirolimus, ruxolitinib and dasatinib was conducted. A corresponding anti-CD20 IgG with a silent Fc portion (comprising “PGLALA” mutations L234A, L235A, P329G (Kabat EU numbering)) was used as a negative control (“PGLALA IgG”). In this assay, fresh whole blood is incubated together with concentrations of obinutuzumab ranging from 100 μg/mL to 0.1 μg/mL in the presence and absence of 100 nM sirolimus, 100 nM ruxolitinib and 100 nM dasatinib. To assess the impact of the different kinase inhibitors on cytokine release, serum was collected at 24 hours and cytokines were analyzed by Luminex. To assess the impact of the different kinase inhibitors on B cell depletion, blood was lysed at 48 hours and B cell depletion was measured by flow cytometry.

[1] = tested on: cytokine release induced via FcγR signaling; test: Whole blood assay: obinutuzumab-induced cytokine release, serum cytokines analyzed by Luminex; assay type: cell-based; settings: for cytokine release induced by an NK cell engaging antibody: summary statement of the description, no conditions given; for levels of IFN-γ: FIG. 2A; for levels of TNF-α: FIG. 2C; for levels of MCP-1: FIG. 2F; for cytokine release: overall statement, whole blood, obinutuzumab
Experimental: FIG. 2. Effect of 100 nM ruxolitinib (ruxo), 100 nM sirolimus (siro), 100 nM dasatinib (dasa) on obinutuzumab-induced IFN-γ (FIG. 2A), IL-2 (FIG. 2B), TNF-α (FIG. 2C), IL-6 (FIG. 2D), IL-8 (FIG. 2E) and MCP-1 (FIG. 2F) for 100, 10, 1 and 0.1 μg/mL obinutuzumab in a whole blood assay. Fresh whole blood was incubated with 100, 10, 1 and 0.1 μg/mL obinutuzumab or PGLALA IgG in the presence and absence of 100 nM ruxolitinib, 100 nM sirolimus and 100 nM dasatinib for 48 hours. The PGLALA IgG has a silent Fc region and is a negative control. At 24 hours, serum was collected and cytokines were analyzed by Luminex. Mean of n=2 donors.
as §1

[2] = 100 nM inhibitor, fresh whole blood, obinutuzumab 100 to 0.1 μg/mL, serum at 24 hours
[3] = 100 nM inhibitor, fresh whole blood, obinutuzumab 100 to 0.1 μg/mL, serum at 24 hours, FIG. 2D, first IL-6 of the list
[4] = 100 nM inhibitor, fresh whole blood, obinutuzumab 100 to 0.1 μg/mL, serum at 24 hours, second IL-6 of the list

Row | SMILES | target cell killing mediated by NK cell engaging antibody (CD19+ B cell) | cytokine release induced by an NK cell engaging antibody [1] | B cell depletion induced by obinutuzumab (CD19+ B cell) | levels of IFN-γ [1, 2] | levels of IL-2 ([1]; 100 nM inhibitor, fresh whole blood, obinutuzumab 100 to 0.1 μg/mL, serum at 24 hours, FIG. 2B) | levels of TNF-α [1, 2] | levels of IL-6 [1, 3] | levels of MCP-1 [1, 2] | levels of IL-6 [1, 4] | potency in reducing cytokine release among the three classes of kinase inhibitors ([1]; comparison of Src, mTOR and JAK1/2 inhibitor at 100 nM) | cytokine release ([1]; 100 nM inhibitor)
1 | CO[C@H]1C[C@@H]2CC[C@@H](C)[C@@](O)(O2)C(=O)C(=O)N2CCCC[C@H]2C(=O)O[C@H]([C@H](C)C[C@@H]2CC[C@@H](OCCO)[C@H](OC)C2)CC(=O)[C@H](C)/C=C(\C)[C@@H](O)[C@@H](OC)C(=O)[C@H](C)C[C@H](C)/C=C/C=C/C=C/1C [everolimus, Everolimus] | retaining | potently prevent | – | – | – | – | – | – | – | – | –
2 | Cc1nc(Nc2ncc(C(=O)Nc3c(C)cccc3Cl)s2)cc(N2CCN(CCO)CC2)n1 [dasatinib, N-(2-chloro-6-methylphenyl)-2[[6[4-(2-hydroxyethyl)-1-piperazinyl]-2-methyl-4-pyrimidinyl]amino]-5-thiazole carboxamide monohydrate] | retaining | potently prevent | did not prevent | strongly reduced | strongly reduced | strongly reduced | strongly reduced | strongly reduced | strongly reduced | most potent | reduced cytokine release
3 | CO[C@H]1C[C@@H]2CC[C@@H](C)[C@@](O)(O2)C(=O)C(=O)N2CCCC[C@H]2C(=O)O[C@H]([C@H](C)C[C@@H]2CC[C@@H](OC(=O)C(C)(CO)CO)[C@H](OC)C2)CC(=O)[C@H](C)/C=C(\C)[C@@H](O)[C@@H](OC)C(=O)[C@H](C)C[C@H](C)/C=C/C=C/C=C/1C [temsirolimus, Temsirolimus] | retaining | potently prevent | – | – | – | – | – | – | – | – | –
4 | CO[C@H]1C[C@@H]2CC[C@@H](C)[C@@](O)(O2)C(=O)C(=O)N2CCCC[C@H]2C(=O)O[C@H]([C@H](C)C[C@@H]2CC[C@@H](O)[C@H](OC)C2)CC(=O)[C@H](C)/C=C(\C)[C@@H](O)[C@@H](OC)C(=O)[C@H](C)C[C@H](C)/C=C/C=C/C=C/1C [sirolimus, Sirolimus] | retaining | potently prevent | did not prevent | reduced | – | reduced | reduced | reduced | reduced | – | reduced cytokine release
5 | N#CC[C@H](C1CCCC1)n1cc(-c2ncnc3[nH]ccc23)cn1 [ruxolitinib, Ruxolitinib] | retaining | potently prevent | did not prevent | reduced | – | reduced | reduced | reduced | reduced | – | reduced cytokine release
